Experimental data as given in US20230095836A1, “SUBSTITUTED 5,6-DIPHENYL-3(2H)-PYRIDAZINONES FOR USE AS FUNGICIDES” (FMC Corporation, priority 2020, published 2023).

What was measured:
Assay type in all cases: in vivo
Conditions in all cases: 50 ppm
[1] = test system: Phakopsora pachyrhizi; experiment: Test D: test solution sprayed on soybean seedlings, inoculated next day with Phakopsora pachyrhizi (Asian soybean rust); visual disease rating (100 = 100% disease control, 0 = no control; dash = not tested)
Excerpt: General protocol for preparing test suspensions for Tests A-F: the test compounds were first dissolved in acetone in an amount equal to 3% of the final volume and then suspended at the desired concentration (in ppm) in acetone and purified water (50/50 mix by volume) containing 250 ppm of the surfactant PEG400 (polyhydric alcohol esters). The resulting test suspensions were then used in Tests A-F.
The test solution was sprayed to the point of run-off on soybean seedlings. The following day the seedlings were inoculated with a spore suspension of Phakopsora pachyrhizi (the causal agent of Asian soybean rust) and incubated in a saturated atmosphere at 22° C. for 24 h and then moved to a growth chamber at 22° C. for 8 days, after which time visual disease ratings were made.
A rating of 100 indicates 100% disease control and a rating of 0 indicates no disease control (relative to the controls). A dash (—) indicates the compound was not tested.

[2] = test system: Alternaria solani; experiment: Test F: test suspension sprayed on tomato seedlings, inoculated next day with Alternaria solani (tomato early blight); visual disease rating (100 = 100% disease control, 0 = no control; dash = not tested)
Method: (§1) The resulting test suspensions were then used in Tests A-F. The test suspension was sprayed to the point of run-off on tomato seedlings. The following day the seedlings were inoculated with a spore suspension of Alternaria solani (the causal agent of tomato early blight) and incubated in a saturated atmosphere at 27° C. for 48 h, and then moved to a growth chamber at 20° C. for 3 days, after which time visual disease ratings were made. A rating of 100 indicates 100% disease control and a rating of 0 indicates no disease control (relative to the controls). A dash (—) indicates the compound was not tested.

[3] = test system: Blumeria graminis f. sp. tritici; experiment: Test C: test suspension sprayed on wheat seedlings, inoculated next day with Blumeria graminis f. sp. tritici (wheat powdery mildew); visual disease rating (100 = 100% disease control, 0 = no control; dash = not tested)
Method: as §1, with “on wheat” for “on tomato”, “spore dust” for “spore suspension”, “of Blumeria graminis f. sp. tritici, (also known as Erysiphe graminis f. sp. tritici, the” for “of Alternaria solani (the”, “of wheat powdery mildew)” for “of tomato early blight)”, “in” for “in a saturated atmosphere at 27° C. for 48 h, and then moved to”, “for 8” for “for 3”

[4] = test system: Puccinia recondita f. sp. tritici; experiment: Test B: test solution sprayed on wheat seedlings, inoculated next day with Puccinia recondita f. sp. tritici (wheat leaf rust); disease rating (100 = 100% disease control, 0 = no control; dash = not tested)
Excerpt: The resulting test suspensions were then used in Tests A-F. The test solution was sprayed to the point of run-off on wheat seedlings. […] A rating of 100 indicates 100% disease control and a rating of 0 indicates no disease control (relative to the controls). A dash (—) indicates the compound was not tested.

[5] = test system: Botrytis cinerea; experiment: Test E: test suspension sprayed on tomato seedlings, inoculated next day with Botrytis cinerea (tomato Botrytis); visual disease rating (100 = 100% disease control, 0 = no control; dash = not tested)
Method: as §1, with “Botrytis cinerea” for “Alternaria solani”, “Botrytis)” for “early blight)”, “20°” for “27°”, “24°” for “20°”

[6] = test system: Zymoseptoria tritici; experiment: Test A: test solution sprayed on wheat seedlings, inoculated next day with Zymoseptoria tritici (wheat leaf blotch); disease rating (100 = 100% disease control, 0 = no control; dash = not tested)
Method: The resulting test suspensions were then used in Tests A-F. The test solution was sprayed to the point of run-off on wheat seedlings. The following day the seedlings were inoculated with a spore suspension of Zymoseptoria tritici (the causal agent of wheat leaf blotch) and incubated in a saturated atmosphere at 24° C. for 48 h, and then moved to a growth chamber at 20° C. for 17 days, after which time disease ratings were made. A rating of 100 indicates 100% disease control and a rating of 0 indicates no disease control (relative to the controls). A dash (—) indicates the compound was not tested.

Structure (SMILES)	Test D disease control rating [1] [%]	Test F disease control rating [2] [%]	Test C disease control rating [3] [%]	Test B disease control rating [4] [%]	Test E disease control rating [5] [%]	Test A disease control rating [6] [%]	pest or weed control at 50 ppm [1] [%]	pest or weed control at 50 ppm [2] [%]	pest or weed control at 50 ppm [3] [%]	pest or weed control at 50 ppm [4] [%]	pest or weed control at 50 ppm [5] [%]	pest or weed control at 50 ppm [6] [%]
COc1ccc(Br)c(-c2nn(C)c(=O)c(Cl)c2-c2ccc(F)cc2Cl)c1 [Compound 118]	100	100	99	100	98	99	–	–	–	–	–	–
COc1cc(-c2nn(C)c(=O)c(Cl)c2-c2ccc(F)cc2Cl)cc(C#N)c1Cl [Compound 52]	98	100	99	100	92	100	–	–	–	–	–	–
Cn1nc(-c2cc(F)ccc2Cl)c(-c2ccc(F)cc2Cl)cc1=O [Compound 126]	0	15	98	74	98	95	–	–	–	–	–	–
Cn1nc(-c2ccc(F)cc2Cl)c(-c2ccc(F)cc2Cl)cc1=O [Compound 70]	52	0	76	41	98	93	–	–	–	–	–	–
Cn1nc(-c2ccc(F)cc2Cl)c(-c2ccc(F)cc2Cl)c(CC#N)c1=O [Compound 177]	0	0	0	80	0	88	–	–	–	–	–	–
COc1cc(OC)cc(-c2nn(C)c(=O)c(Cl)c2-c2ccc(F)cc2Cl)c1 [Compound 55]	99	99	98	100	99	99	–	–	–	–	–	–
Cn1nc(-c2cccc(F)c2F)c(-c2ccc(F)cc2Cl)c(Cl)c1=O [Compound 107]	100	100	100	100	97	100	–	–	–	–	–	–
COc1c(-c2ccc(F)cc2Cl)c(-c2ccccc2)nn(C)c1=O [Compound 142, 5-(2-chloro-4-fluorophenyl)-4-methoxy-2-methyl-6-phenyl-3(2H)-pyridazinone]	–	–	–	–	–	–	0	98	99	68	98	95
COc1c(-c2ccc(F)cc2Cl)c(-c2ccccc2Cl)nn(C)c1=O [Compound 160]	73	0	100	100	99	100	–	–	–	–	–	–
CCn1nc(-c2cc(OC)cc(OC)c2Cl)c(-c2c(F)cccc2F)c(OC)c1=O [Compound 75]	69	0	98	99	97	100	–	–	–	–	–	–
COc1cc(OC)c(F)c(-c2nn(C)c(=O)c(Cl)c2-c2ccc(F)cc2Cl)c1 [Compound 155]	100	100	100	100	100	99	–	–	–	–	–	–
Cn1nc(-c2cc(C#N)ccc2Cl)c(-c2ccc(F)cc2Cl)c(Cl)c1=O [Compound 49]	96	99	98	100	96	100	–	–	–	–	–	–
